Measured values from the supplement of paper PMC10307832.

Key:
Assay in all cases: relative viability (nuclei count vs DMSO), 5 days (fraction); higher = more cells survive
Vismodegib + Phenformin = compound: CS(=O)(=O)c1ccc(C(=O)Nc2ccc(Cl)c(-c3ccccn3)c2)c(Cl)c1 [Vismodegib] + N=C(N)NC(=N)NCCc1ccccc1 [Phenformin] (partner 250 µM)
How it was run: (§1)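 Relative viability was taken as the ratio of nuclei in treated wells to nuclei in vehicle wells. Lung cancer cell lines in 1536-well plates received compounds by pin tool one day after seeding, either one drug alone or a fixed anchor-drug dose plus five library-drug doses (not always all listed) in √10 steps. Nuclei were counted on 4× images after 5 days of treatment, and values are medians of duplicate plates.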

Ruxolitinib + Crizotinib = compound: N#CC[C@H](C1CCCC1)n1cc(-c2ncnc3[nH]ccc23)cn1 [Ruxolitinib] + C[C@@H](Oc1cc(-c2cnn(C3CCNCC3)c2)cnc1N)c1c(Cl)ccc(F)c1Cl [Crizotinib] (partner 1 µM)
How it was run: as §1

VE-821 + Pictilisib = compound: CS(=O)(=O)c1ccc(-c2cnc(N)c(C(=O)Nc3ccccc3)n2)cc1 [VE-821] + CS(=O)(=O)N1CCN(Cc2cc3nc(-c4cccc5[nH]ncc45)nc(N4CCOCC4)c3s2)CC1 [Pictilisib] (partner 1 µM)
How it was run: as §1

Vismodegib + Olaparib = compound: CS(=O)(=O)c1ccc(C(=O)Nc2ccc(Cl)c(-c3ccccn3)c2)c(Cl)c1 [Vismodegib] + O=C(c1cc(Cc2n[nH]c(=O)c3ccccc23)ccc1F)N1CCN(C(=O)C2CC2)CC1 [Olaparib] (partner 8 µM)
How it was run: as §1

Row | Cell Line | relative viability (Vismodegib + Phenformin; first compound 0.08 µM) | relative viability (Vismodegib + Phenformin; first compound 0.253 µM) | relative viability (Vismodegib + Phenformin; first compound 0.8 µM) | relative viability (Vismodegib + Phenformin; first compound 2.53 µM) | relative viability (Vismodegib + Phenformin; first compound 8 µM) | relative viability (Ruxolitinib + Crizotinib; first compound 0.08 µM) | relative viability (Ruxolitinib + Crizotinib; first compound 0.253 µM) | relative viability (Ruxolitinib + Crizotinib; first compound 0.8 µM) | relative viability (Ruxolitinib + Crizotinib; first compound 2.53 µM) | relative viability (Ruxolitinib + Crizotinib; first compound 8 µM) | relative viability (VE-821 + Pictilisib; first compound 0.08 µM) | relative viability (VE-821 + Pictilisib; first compound 0.253 µM) | relative viability (VE-821 + Pictilisib; first compound 0.8 µM) | relative viability (VE-821 + Pictilisib; first compound 2.53 µM) | relative viability (VE-821 + Pictilisib; first compound 8 µM) | relative viability (Vismodegib + Olaparib; first compound 0.08 µM) | relative viability (Vismodegib + Olaparib; first compound 0.253 µM) | relative viability (Vismodegib + Olaparib; first compound 0.8 µM) | relative viability (Vismodegib + Olaparib; first compound 2.53 µM) | relative viability (Vismodegib + Olaparib; first compound 8 µM)
1 | NCI-H1355 | 0.455 | 0.474 | 0.462 | 0.458 | 0.401 | 1.08 | 1.01 | 1.06 | 0.839 | 0.907 | 0.431 | 0.458 | 0.411 | 0.476 | 0.32 | 0.721 | 0.716 | 0.781 | 0.807 | 0.722
2 | NCI-H1437 | 0.296 | 0.309 | 0.291 | 0.333 | 0.289 | 0.924 | 1.08 | 0.872 | 0.795 | 0.778 | 0.448 | 0.352 | 0.458 | 0.396 | 0.3 | 0.633 | 0.607 | 0.653 | 0.63 | 0.598
3 | NCI-H1650 | 0.387 | 0.414 | 0.479 | 0.415 | 0.406 |  | 0.9 | 1.11 | 0.83 | 0.848 | 0.677 | 0.506 | 0.57 | 0.638 | 0.499 | 0.896 | 0.633 | 0.763 | 0.794 | 0.746
4 | NCI-H1651 | 0.353 | 0.336 | 0.365 | 0.343 | 0.327 | 0.8 | 0.893 | 0.847 | 0.779 | 0.842 | 0.648 | 0.584 | 0.602 | 0.557 | 0.585 | 0.176 | 0.192 | 0.188 | 0.182 | 0.204
5 | NCI-H1666 | 0.557 | 0.587 | 0.535 | 0.517 | 0.565 | 1.03 | 0.974 | 0.986 | 0.878 | 0.909 | 0.516 | 0.365 | 0.399 | 0.441 | 0.403 | 0.679 | 0.747 | 0.727 | 0.732 | 0.749
6 | NCI-H1734 | 0.384 | 0.316 | 0.396 | 0.322 | 0.384 | 0.66 | 0.721 | 0.795 | 0.633 | 0.559 | 0.453 | 0.47 | 0.433 | 0.527 | 0.36 | 0.574 | 0.515 | 0.605 | 0.59 | 0.672
7 | NCI-H1755 | 0.596 | 0.61 | 0.611 | 0.617 | 0.598 | 0.87 | 0.897 | 0.887 | 0.784 | 0.476 | 0.509 | 0.359 | 0.416 | 0.418 | 0.363 | 0.863 | 0.884 | 0.897 | 0.843 | 0.852
8 | NCI-H1792 |  | 0.318 | 0.254 |  | 0.41 | 1.01 | 0.893 | 0.946 | 0.753 | 0.85 | 0.274 | 0.393 | 0.281 | 0.319 | 0.271 | 0.381 | 0.412 | 0.527 | 0.349 | 0.376
9 | NCI-H1915 | 0.368 | 0.359 | 0.381 | 0.355 | 0.357 | 0.903 | 0.925 | 1.01 | 0.835 | 0.864 | 1.06 | 0.785 | 0.982 | 1.07 | 0.652 | 0.276 | 0.256 | 0.244 | 0.273 | 0.232
10 | NCI-H1944 | 0.192 | 0.207 | 0.205 | 0.197 | 0.216 | 0.99 | 0.955 | 0.998 | 0.928 | 1.02 | 0.364 | 0.325 | 0.348 | 0.339 | 0.294 | 0.414 | 0.404 | 0.398 |  | 0.441
11 | NCI-H1975 | 0.402 | 0.408 | 0.398 | 0.424 | 0.389 | 1.07 | 1.01 | 1.05 | 0.858 | 0.547 | 0.312 | 0.216 | 0.298 | 0.267 | 0.26 | 0.736 | 0.788 | 0.788 | 0.83 | 0.791
12 | NCI-H1993 | 0.448 | 0.531 | 0.519 | 0.514 | 0.498 | 0.785 | 0.801 | 0.873 | 0.61 | 0.935 | 0.861 | 0.821 | 0.822 | 0.874 | 0.862 | 0.9 | 1.03 | 1.03 | 1 | 0.963
13 | NCI-H2009 | 0.467 | 0.474 | 0.478 | 0.45 | 0.467 | 1.1 | 0.996 | 1.12 | 0.769 | 0.832 | 0.873 | 0.754 | 0.881 | 0.894 | 0.664 | 0.679 | 0.655 | 0.699 | 0.662 | 0.724
